In patent US20260053747A1, “RECONSTITUTED HIGH-DENSITY LIPOPROTEIN NANOPARTICLES COMPRISING CHOLESTEROL” (MEPSGEN CO., LTD., priority 2023, published 2026):

Tests used:
hBMECs = assay: Toxicity (cell survival rate) in hBMECs; type: cell-based, human; settings: up to 5 μg/mL, 8 hours
Procedure: (§1) The toxicity of 24HC-containing rHDL nanoparticles toward hBMECs, iBMECs, pericytes, and normal brain astrocytes, which constitute the BBB until the nanoparticles penetrate the BBB and reach the GBM, was evaluated. hBMECs, iBMECs, pericytes, and astrocytes were seeded into a 96-well cell culture plate. Pericytes were cultured in PM medium, astrocytes were cultured in the same culture medium as described in Example 1, and hBMEC and iBMEC cells were cultured in the same culture medium as described in Example 6. After 24 hours of incubation, the cells were treated with the nanoparticles according to the present invention at concentrations ranging from Oto 5 μg/mL, and the cell survival rate (%) was evaluated after 8 hours of incubation. […] In addition, it was confirmed that the nanoparticles are not toxic to normal brain cells other than GBM.

iBMECs = assay: Toxicity (cell survival rate) in iBMECs; type: cell-based, human; settings: up to 5 μg/mL, 8 hours
Procedure: as §1

pericytes = assay: Toxicity (cell survival rate) in pericytes; type: cell-based; settings: up to 5 μg/mL, 8 hours
Procedure: as §1

normal brain astrocytes = assay: Toxicity (cell survival rate) in astrocytes; type: cell-based; settings: up to 5 μg/mL, 8 hours
Procedure: as §1

[1] = system: LDLR mRNA expression in U87MG cells; assay: qPCR of LDLR mRNA in U87MG; type: cell-based; settings: 1 μg/mL of 24HC, 24 hours
Description: (§2) 24HC is an endogenous LXR agonist and is known to induce the expression of genes responsible for cholesterol efflux, such as ABCA1 and ABCG1, thereby inducing intracellular cholesterol efflux, and to inhibit exogenous cholesterol uptake by downregulating LDLR. Accordingly, we anticipated that treatment of GBM with 24HC-containing rHDL nanoparticles would result in a greater decrease in LDLR expression and an increase in ABCA1 expression due to the action of 24HC, compared to the treatment with 24HC alone. Therefore, U87MG and LN229 cells were treated with 24HC, 24HC-containing rHDL nanoparticles, and rHDL nanoparticles, and the changes in LDLR and ABCA1 mRNA expression were confirmed using qPCR (real-time polymerase chain reaction). U87MG and LN229 cells were seeded at 0.5×10^5 cells/well in a 6-well cell culture plate and cultured for 24 hours under the conditions described in Example 1 above. In qPCR experiments, U87MG cells were treated with 1 μg/mL of 24HC for 24 hours, and LN229 cells were treated with 5 μg/mL of 24HC for 24 hours, and changes in LDLR mRNA were confirmed. […] In the case of rHDL nanoparticles, the amount of apolipoprotein E3 in the 24HC-containing rHDL nanoparticles was quantified using a BCA assay, and the same amount of apolipoprotein E3 corresponding to the 24HC treatment concentration was calculated prior to treatment with rHDL nanoparticles.

[2] = system: LDLR mRNA expression in LN229 cells; assay: qPCR of LDLR mRNA in LN229; type: cell-based; settings: LN229, 5 μg/mL of 24HC, 24 hours
Description: as §2

[3] = system: ABCA1 mRNA expression in U87MG cells; assay: qPCR of ABCA1 mRNA in U87MG; type: cell-based; settings: 1 μg/mL of 24HC, 4 hours
Description: as §2

[4] = system: ABCA1 mRNA expression in LN229 cells; assay: qPCR of ABCA1 mRNA in LN229; type: cell-based; settings: LN229, 5 μg/mL of 24HC, 4 hours
Description: as §2

U87MG cells = assay: GBM cell survival rate in U87MG; type: cell-based; settings: Homo sapiens, U-87 MG, 0-50 μg/mL, 48 hours
Procedure: (§3) In order to determine whether cholesterol depletion caused by intracellular cholesterol efflux inhibits GBM cell proliferation and induces cell death, U87MG and LN229 cells were treated with rHDL nanoparticles, 24HC, and 24HC-containing rHDL nanoparticles, and the cell survival rate was evaluated. After 24 hours of incubation, the cells were treated with the nanoparticles according to the present invention at concentrations of 0-50 μg/mL, and the cell survival rate (%) was evaluated after 48 hours of incubation.

LN229 cells = assay: GBM cell survival rate in LN229; type: cell-based; settings: Homo sapiens, LN-229, 0-50 μg/mL, 48 hours
Procedure: as §3

[5] = system: LDLR mRNA expression in GBM #P1 and GBM #P2 cells; assay: qPCR of LDLR mRNA in patient-derived GBM cells; type: cell-based; settings: GBM #P1 and GBM #P2, 2 μg/mL of 24HC, 4 hours
Procedure: GBM #P1 and GBM #P2 cells were treated with 24HC, 24HC-containing rHDL nanoparticles, and rHDL nanoparticles, and the changes in LDLR and ABCA1 mRNA expression were confirmed using qPCR. GBM #P1 and GBM #P2 cells were seeded at 0.5×10^5 cells/well in a 6-well cell culture plate and were cultured for 24 hours. The cells were cultured under the conditions as described in Example 12 above. GBM #P1 and GBM #P2 cells were treated with 24HC and 24HC-containing rHDL nanoparticles at a concentration of 2 μg/mL of 24HC for 4 hours. In the case of rHDL nanoparticles, the amount of apolipoprotein E3 in the 24HC-containing rHDL nanoparticles was quantified using a BCA assay, and then the same amount of apolipoprotein E3 corresponding to the 24HC treatment concentration was calculated prior to treatment with rHDL nanoparticles.

GBM #P1 cells = assay: Cell viability in patient-derived GBM #P1; type: cell-based; settings: 0-50 μg/mL, 48 hours
Procedure: (§4) In order to determine whether cholesterol depletion due to intracellular cholesterol efflux inhibits GBM cell proliferation and induces cell death, GBM #P1 and GBM #P2 cells were treated with rHDL nanoparticles, 24HC, and 24HC-containing rHDL nanoparticles, and cell viability was evaluated. After 24 hours of incubation, the cells were treated with 0-50 μg/mL of the nanoparticles, and the cell viability (%) was assessed after 48 hours of incubation.

GBM #P2 cells = assay: Cell viability in patient-derived GBM #P2; type: cell-based; settings: 0-50 μg/mL, 48 hours
Procedure: as §4

[6] = system: ABCA1 protein in PDAC cells; settings: PDAC cells (Raimund O, Life Sci Alliance, 2022); cited from earlier work

CC(C)C(O)CC[C@@H](C)[C@H]1CC[C@H]2[C@@H]3CC=C4C[C@@H](O)CC[C@]4(C)[C@H]3CC[C@]12C (some centres unmarked) [Formulation 24HC, 24-hydroxycholesterol]
Toxicity in hBMECs (hBMECs): none of the rHDL nanoparticles, 24HC, or 24HC-containing rHDL nanoparticles exhibited toxicity
Toxicity in iBMECs (iBMECs): none of the rHDL nanoparticles, 24HC, or 24HC-containing rHDL nanoparticles exhibited toxicity
Toxicity in pericytes (pericytes): none of the rHDL nanoparticles, 24HC, or 24HC-containing rHDL nanoparticles exhibited toxicity
Toxicity in astrocytes (normal brain astrocytes): none of the rHDL nanoparticles, 24HC, or 24HC-containing rHDL nanoparticles exhibited toxicity
Level of LDLR mRNA expression compared to the control group [1]: decreased
Level of LDLR mRNA expression compared to the control group [2]: decreased
Level of ABCA1 mRNA expression compared to the control group [3]: increased
Level of ABCA1 mRNA expression compared to the control group [4]: increased
IC50 (U87MG cells): 6.7 µg/mL
IC50 (LN229 cells): 12.8 µg/mL
Level of LDLR mRNA expression, lower compared to the control group [5]: significantly reduced
IC50 (GBM #P1 cells): 40.2 µg/mL
IC50 (GBM #P2 cells): 13.8 µg/mL

O=S(=O)(c1ccccc1)N(CC(F)(F)F)c1ccc(C(O)(C(F)(F)F)C(F)(F)F)cc1 [Formulation T0901317]
Expression of the ABCA1 protein [6]: increased the expression of the ABCA1 protein
